For assay [1], the target named is T1, human 5-HT1A serotonergic receptor (Homo sapiens, UniProt P08908).
T1 construct: expressed in transfected cells; host or cells: HeLa
T1 sequence (P08908 1-422): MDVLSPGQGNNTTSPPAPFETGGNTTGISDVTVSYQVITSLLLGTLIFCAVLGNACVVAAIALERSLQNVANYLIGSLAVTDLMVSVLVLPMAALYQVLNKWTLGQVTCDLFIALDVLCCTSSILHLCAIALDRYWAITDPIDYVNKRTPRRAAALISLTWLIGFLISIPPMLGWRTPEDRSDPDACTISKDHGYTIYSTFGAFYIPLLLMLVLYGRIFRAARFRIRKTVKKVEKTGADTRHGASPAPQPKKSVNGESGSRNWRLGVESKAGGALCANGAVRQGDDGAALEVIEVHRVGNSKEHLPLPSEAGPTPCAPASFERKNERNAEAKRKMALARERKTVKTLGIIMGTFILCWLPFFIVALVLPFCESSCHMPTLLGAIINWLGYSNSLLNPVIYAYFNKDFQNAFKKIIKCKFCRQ
Briefly: Radioreceptor binding, recombinant human 5-HT1A receptors ([3H]8-OH-DPAT, HeLa membranes). Conditions: for Ki: recombinant human receptor, [3H]8-OH-DPAT, Ki from IC50 by Cheng & Prusoff, read-out: Binding affinity for the 5-HT1A receptor, Ki. The essentials: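 Membranes from HeLa cells stably transfected with human 5-HT1A clone G-21 incubated 30 min at 30° C with 0.2-1 nM [3H]8-OH-DPAT in 50 mM Tris HCl pH 7.4, 2.5 mM MgCl2, 10 μM pargiline; nonspecific binding with 10 μM 5-HT. Filtration assay; IC50 from curve fitting converted to Ki by Cheng-Prusoff.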

In assay [2] the target is T2, post-synaptic 5-HT1A receptor (Rattus norvegicus, UniProt P19327).
T2 construct: from tissue; host or cells: whole animal, male Sprague-Dawley rats
T2 sequence (P19327 1-422): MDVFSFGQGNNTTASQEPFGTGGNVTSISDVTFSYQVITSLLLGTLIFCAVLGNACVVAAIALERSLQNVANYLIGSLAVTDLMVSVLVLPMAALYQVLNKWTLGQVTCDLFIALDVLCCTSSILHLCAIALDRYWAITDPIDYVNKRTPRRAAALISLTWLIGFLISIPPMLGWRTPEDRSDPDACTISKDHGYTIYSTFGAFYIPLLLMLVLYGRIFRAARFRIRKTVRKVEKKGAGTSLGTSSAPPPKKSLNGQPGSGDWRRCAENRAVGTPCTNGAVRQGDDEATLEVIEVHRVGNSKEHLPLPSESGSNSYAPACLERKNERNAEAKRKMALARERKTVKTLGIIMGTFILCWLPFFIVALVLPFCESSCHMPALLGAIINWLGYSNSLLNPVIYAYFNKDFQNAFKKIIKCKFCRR
Briefly: Inhibition of forepaw treading induced by 8-OH-DPAT in rats (post-synaptic antagonism). Conditions: for ED50: rat, iv, read-out: Post-synaptic 5-HT1A ID50, heading: Post-synaptic 5-HT1A ID50, dose blocking 50% of forepaw treading induced by 1 mg/kg s.c. 8-OH-DPAT in rats, compound i.v. The class given is in vivo. The protocol: The inhibitory effect of 5-HT1A receptor antagonists on the forepaw treading induced in rats by subcutaneous injection of 8-OH-DPAT was evaluated by the method of Tricklebank (Tricklebank et al., Eur. J.Pharmacol., 117:15, 1985) with minor modifications as described below. Male Sprague-Dawley rats (150-175 g) obtained from Charles River (Italy), were housed in a climate-controlled room and maintained on a 12 h light/dark cycle with free access to food and water. On the day of experiment, rats were placed singly in clear plastic boxes. Rats were treated with reserpine, 1 mg/kg s.c., 18-24 h before the test to deplete intracellular stores of noradrenaline. For evaluation of antagonistic activity, compounds were i.v. administered 16 min before 8-OH-DPAT (1 mg/kg s.c.). Observation sessions of 30 s duration began 3 min after treatment with the agonist and were repeated every 3 min over a period of 15 min. The appearance of the forepaw treading symptom induced by postsynaptic stimulation of the 5HT1A receptors was noted, and its intensity was scored using a ranked intensity scale in which: 0=absent, 1=equivocal, 2=present and 3=intense. Behavioral scores for each treated rat were accumulated over the time course (5 observation periods) and expressed as mean values of 8-10 rats. A linear regression equation was used in order to evaluate ID50 values, defined as the dose of antagonist needed to block 50% of the forepaw treading intensity induced by 1 mg/kg 8-OH-DPAT administered subcutaneously.

Here are results for five molecules from patent US6399614B1, “1-(N-phenylaminoalkyl)piperazine derivatives substituted at position 2 of the phenyl ring” (Recordati S.A. Chemical and Pharmaceutical Company, priority 1997, dated 2002).

Molecules are shown by their SMILES.

As usually defined, the Ki is the equilibrium dissociation constant of an inhibitor or competing ligand from its target. `COC(=O)c1ccccc1N(CCN1CCN(c2ccccc2OC)CC1)C(=O)C1CCCCC1` [Example 18, 1-[N-(2-methoxycarbonylphenyl)-N-cyclohexylcarbonyl-2-aminoethyl]-4-(2-methoxyphenyl)piperazine]: the Ki in assay [1] came to 0.6 nM. Moreover, the ED50 in assay [2] came out at 0.084 mg/kg.

For `COc1ccccc1N1CCN(CCN(C(=O)C2CCCCC2)c2ccccc2)CC1` [Compound A, 1-(N-phenyl-N-cyclohexylcarbonyl-2-aminoethyl)-4-(2-methoxyphenyl)piperazine, reference compound], in assay [1], the “affinity for 5-HT1A receptors (in words)” value is “very high affinity”. Moreover, the “fold less active than compound of Example 2, post-synaptic model” value in assay [2] (forepaw treading model in rats) is “at least 10 fold”. Also, the ED50 in assay [2] is 0.35 mg/kg.

As to `O=C(C1CCCCC1)N(CCN1CCN(c2cccc3[nH]ccc23)CC1)c1ccccc1[N+](=O)[O-]` [Example 13, 1-[N-(2-nitrophenyl)-N-cyclohexylcarbonyl-2-aminoethyl]-4-(4-indolyl)piperazine], the Ki in assay [1] turned out to be 0.5 nM. Also, the ED50 in assay [2] came to 0.082 mg/kg.

Turning to `COc1ccccc1N1CCN(CCN(C(=O)C2CCCCC2)c2ccccc2OC)CC1` [Example 23, 1-[N-(2-methoxyphenyl)-N-cyclohexylcarbonyl-2-aminoethyl]-4-(2-methoxyphenyl)piperazine], the Ki in assay [1] was found to be 0.14 nM. The ED50 in assay [2] was found to be 0.177 mg/kg.

Turning to `COc1ccccc1N1CCN(CCN(C(=O)C2CCCCC2)c2ccccc2[N+](=O)[O-])CC1` [Example 2, 1-[N-(2-nitrophenyl)-N-cyclohexylcarbonyl-2-aminoethyl]-4-(2-methoxyphenyl) piperazine], the “affinity for 5-HT1A receptors (in words)” value in assay [1] was “very high affinity”. For the same molecule, the ED50 in assay [2] was 0.036 mg/kg.
